Laboratory results as given in article PMC4291083, “Ex Vivo Characterization of a Novel Iodine-123-Labelled Aminomethylchroman as a Potential Agonist Ligand for SPECT Imaging of Dopamine D2/3 Receptors” (International Journal of Molecular Imaging, 2014).
Marks after values point to notes of the source that are not given here.

Assay: Biodistribution studies in rats
Type: in vivo, Wistar rats
Settings: male rats
Protocol: [^123I]-1 (SA ≥ 37 MBq/nmol) was received after radiolabelling in an isotonic acetate (9% EtOH) buffer (pH 4.8). The solution was passed through a membrane filter (0.2 μm) and was diluted to the proper concentrations. Male Wistar rats (approximately 250 g body weight, obtained from Harlan/Charles River, Zeist, Netherlands) received an intravenous injection in the tail vein of approximately 3.7 MBq/0.4 mL buffer of [^123I]-1 under O2/CO2 anaesthesia. Distribution to the tissue was measured 15 min, 30 min, and 1, 2, 3, 4, and 24 h after the injection to determine the time course of uptake in several organs, including the brain. Four rats were killed at each time point via bleeding by heart puncture (to minimize contribution of blood activity) under O2/CO2 anaesthesia followed by cervical dislocation. Brain regions (cerebellum, frontal and prefrontal cortex, olfactory bulbs, pituitary, medulla with pons, midbrain, striatum, hypothalamus, hippocampus, and thalamus) and various peripheral tissues (heart, lung, liver, spleen, kidney, muscle, fat, and thymus) were quickly excised and weighted. The activity of [^123I] was assayed in a gamma counter, and data was corrected for decay and the amount of radioactivity was presented as percentage of the injected dose, multiplied by the body weight in kilograms, per gram tissue or blood. Selective uptake in the striatum was determined by calculating the ratio of radioactivity in the striatum in relation to that in the cerebellum, since the density of dopamine D2/3 receptor is negligible in this brain area in rats.

Oc1ccc2c(c1)O[C@@H](CNCc1ccc([123I])cc1)CC2 [[^123I]-1]
123I radioactivity, Fat (3 h after i.v. injection): 0.337 ± 0.065 %ID × kg/g
123I radioactivity, Fat (4 h after i.v. injection): 0.174 ± 0.056 %ID × kg/g
123I radioactivity, Fat (24 h after i.v. injection): 0.016 ± 0.005 %ID × kg/g
123I radioactivity, Frontal cortex (15 min after i.v. injection): 2.567 ± 1.933 %ID × kg/g
123I radioactivity, Frontal cortex (30 min after i.v. injection): 2.329 ± 0.904 %ID × kg/g
123I radioactivity, Frontal cortex (1 h after i.v. injection): 0.722 ± 0.061 %ID × kg/g
123I radioactivity, Frontal cortex (2 h after i.v. injection): 0.223 ± 0.028 %ID × kg/g
123I radioactivity, Frontal cortex (3 h after i.v. injection): 0.232 ± 0.095 %ID × kg/g
123I radioactivity, Frontal cortex (4 h after i.v. injection): 0.109 ± 0.057 %ID × kg/g
123I radioactivity, Frontal cortex (24 h after i.v. injection): 0.024 ± 0.002 %ID × kg/g
123I radioactivity, Hippocampus (15 min after i.v. injection): 0.826 ± 0.475 %ID × kg/g
123I radioactivity, Hippocampus (30 min after i.v. injection): 2.155 ± 0.675 %ID × kg/g
123I radioactivity, Hippocampus (1 h after i.v. injection): 0.866 ± 0.089 %ID × kg/g
123I radioactivity, Hippocampus (2 h after i.v. injection): 0.255 ± 0.040 %ID × kg/g
123I radioactivity, Hippocampus (3 h after i.v. injection): 0.230 ± 0.085 %ID × kg/g
123I radioactivity, Hippocampus (4 h after i.v. injection): 0.093 ± 0.059 %ID × kg/g
123I radioactivity, Hippocampus (24 h after i.v. injection): 0.014 ± 0.001 %ID × kg/g
123I radioactivity, Hypothalamus (15 min after i.v. injection): 1.335 ± 0.766 %ID × kg/g
123I radioactivity, Hypothalamus (30 min after i.v. injection): 1.699 ± 0.526 %ID × kg/g
123I radioactivity, Hypothalamus (1 h after i.v. injection): 0.747 ± 0.111 %ID × kg/g
123I radioactivity, Hypothalamus (2 h after i.v. injection): 0.218 ± 0.036 %ID × kg/g
123I radioactivity, Hypothalamus (3 h after i.v. injection): 0.233 ± 0.070 %ID × kg/g
123I radioactivity, Hypothalamus (4 h after i.v. injection): 0.114 ± 0.051 %ID × kg/g
123I radioactivity, Hypothalamus (24 h after i.v. injection): 0.027 ± 0.005 %ID × kg/g
123I radioactivity, Kidney (15 min after i.v. injection): 1.618 ± 0.774 %ID × kg/g
123I radioactivity, Kidney (30 min after i.v. injection): 1.735 ± 0.353 %ID × kg/g
123I radioactivity, Kidney (1 h after i.v. injection): 1.770 ± 0.302 %ID × kg/g
123I radioactivity, Kidney (2 h after i.v. injection): 1.081 ± 0.154 %ID × kg/g
123I radioactivity, Kidney (3 h after i.v. injection): 1.336 ± 0.175 %ID × kg/g
123I radioactivity, Kidney (4 h after i.v. injection): 1.005 ± 0.397 %ID × kg/g
123I radioactivity, Kidney (24 h after i.v. injection): 0.150 ± 0.026 %ID × kg/g
123I radioactivity, Midbrain (15 min after i.v. injection): 3.566 ± 4.660 %ID × kg/g
123I radioactivity, Midbrain (30 min after i.v. injection): 1.715 ± 0.577 %ID × kg/g
123I radioactivity, Midbrain (1 h after i.v. injection): 0.754 ± 0.040 %ID × kg/g
123I radioactivity, Midbrain (2 h after i.v. injection): 0.229 ± 0.046 %ID × kg/g
123I radioactivity, Midbrain (3 h after i.v. injection): 0.214 ± 0.062 %ID × kg/g
123I radioactivity, Midbrain (4 h after i.v. injection): 0.098 ± 0.059 %ID × kg/g
123I radioactivity, Midbrain (24 h after i.v. injection): 0.020 ± 0.003 %ID × kg/g
123I radioactivity, Muscle (15 min after i.v. injection): 0.412 ± 0.466 %ID × kg/g
123I radioactivity, Muscle (30 min after i.v. injection): 0.363 ± 0.049 %ID × kg/g
123I radioactivity, Olfactory b. (15 min after i.v. injection): 0.445 ± 0.439 %ID × kg/g
123I radioactivity, Olfactory b. (30 min after i.v. injection): 1.325 ± 0.402 %ID × kg/g
123I radioactivity, Olfactory b. (1 h after i.v. injection): 0.631 ± 0.036 %ID × kg/g
123I radioactivity, Olfactory b. (2 h after i.v. injection): 0.218 ± 0.025 %ID × kg/g
123I radioactivity, Olfactory b. (3 h after i.v. injection): 0.234 ± 0.087 %ID × kg/g
123I radioactivity, Olfactory b. (4 h after i.v. injection): 0.112 ± 0.043 %ID × kg/g
123I radioactivity, Olfactory b. (24 h after i.v. injection): 0.020 ± 0.001 %ID × kg/g
123I radioactivity, Pituitary (15 min after i.v. injection, only 1 sample): 1.401^* %ID × kg/g
123I radioactivity, Pituitary (30 min after i.v. injection): 3.367 ± 1.033 %ID × kg/g
123I radioactivity, Pituitary (1 h after i.v. injection): 1.561 ± 0.538 %ID × kg/g
123I radioactivity, Pituitary (2 h after i.v. injection): 0.918 ± 0.632 %ID × kg/g
123I radioactivity, Pituitary (3 h after i.v. injection): 0.548 ± 0.149 %ID × kg/g
123I radioactivity, Pituitary (4 h after i.v. injection): 0.307 ± 0.056 %ID × kg/g
123I radioactivity, Pituitary (24 h after i.v. injection): 0.082 ± 0.006 %ID × kg/g
123I radioactivity, Pons/medulla (15 min after i.v. injection): 1.188 ± 0.587 %ID × kg/g
123I radioactivity, Pons/medulla (30 min after i.v. injection): 1.486 ± 0.274 %ID × kg/g
123I radioactivity, Pons/medulla (1 h after i.v. injection): 0.761 ± 0.040 %ID × kg/g
123I radioactivity, Pons/medulla (2 h after i.v. injection): 0.237 ± 0.045 %ID × kg/g
123I radioactivity, Pons/medulla (3 h after i.v. injection): 0.229 ± 0.066 %ID × kg/g
123I radioactivity, Pons/medulla (4 h after i.v. injection): 0.106 ± 0.057 %ID × kg/g
123I radioactivity, Pons/medulla (24 h after i.v. injection): 0.017 ± 0.001 %ID × kg/g
123I radioactivity, Spleen (15 min after i.v. injection): 2.428 ± 1.971 %ID × kg/g
123I radioactivity, Spleen (30 min after i.v. injection): 1.270 ± 0.282 %ID × kg/g
123I radioactivity, Spleen (1 h after i.v. injection): 0.749 ± 0.093 %ID × kg/g
123I radioactivity, Spleen (2 h after i.v. injection): 0.266 ± 0.047 %ID × kg/g
123I radioactivity, Spleen (3 h after i.v. injection): 0.284 ± 0.092 %ID × kg/g
123I radioactivity, Spleen (4 h after i.v. injection): 0.166 ± 0.087 %ID × kg/g
123I radioactivity, Spleen (24 h after i.v. injection): 0.022 ± 0.003 %ID × kg/g
123I radioactivity, Striatum (15 min after i.v. injection): 1.231 ± 1.299 %ID × kg/g
123I radioactivity, Striatum (30 min after i.v. injection): 1.947 ± 0.666 %ID × kg/g
123I radioactivity, Striatum (1 h after i.v. injection): 0.779 ± 0.037 %ID × kg/g
123I radioactivity, Striatum (2 h after i.v. injection): 0.226 ± 0.034 %ID × kg/g
123I radioactivity, Striatum (3 h after i.v. injection): 0.232 ± 0.065 %ID × kg/g
123I radioactivity, Striatum (4 h after i.v. injection): 0.101 ± 0.051 %ID × kg/g
123I radioactivity, Striatum (24 h after i.v. injection): 0.027 ± 0.010 %ID × kg/g
123I radioactivity, Thalamus (15 min after i.v. injection): 1.556 ± 1.015 %ID × kg/g
123I radioactivity, Thalamus (30 min after i.v. injection): 1.978 ± 0.618 %ID × kg/g
123I radioactivity, Thalamus (1 h after i.v. injection): 0.779 ± 0.049 %ID × kg/g
123I radioactivity, Thalamus (2 h after i.v. injection): 0.234 ± 0.037 %ID × kg/g
123I radioactivity, Thalamus (3 h after i.v. injection): 0.279 ± 0.091 %ID × kg/g
123I radioactivity, Thalamus (4 h after i.v. injection): 0.114 ± 0.047 %ID × kg/g
123I radioactivity, Thalamus (24 h after i.v. injection): 0.033 ± 0.006 %ID × kg/g
